Measurements: patent publication US20240158446A1, “CYCLIC COMPOUND HAVING SELECTIVE INHIBITORY ACTION ON KRAS OVER HRAS AND NRAS” (CHUGAI SEIYAKU KABUSHIKI KAISHA, priority 2021, published 2024)
Like-named read-outs stand apart in the source and are kept apart here. Where a SMILES comes first, the peptide text is derived from it. Bridges are numbered along the chain shown (N, C = ends). [ ]: non-standard residue; d: D form. The star is where a group is joined. hPhe(3-Cl-4-CF3) = N[C@@H](CCc1ccc(C(F)(F)F)c(Cl)c1)C(=O)O; NPrPhe(4-CF3) = CCCN[C@@H](Cc1ccc(C(F)(F)F)cc1)C(=O)O; NMeGly(cPent) = CN[C@H](C(=O)O)C1CCCC1; Pro(4,4-F2) = O=C(O)[C@@H]1CC(F)(F)CN1; NMeD = CN[C@@H](CC(=O)O)C(=O)O; NMeL = CN[C@@H](CC(C)C)C(=O)O; Azetidin(1-yl) = C1CN(*)C1; Ac5c = NC1(C(=O)O)CCCC1; Aze = O=C(O)[C@@H]1CCN1; Ac4c = NC1(C(=O)O)CCC1; Sar = CNCC(=O)O

Assays:
[1] = biological target: GDP-bound HRAS wild-type protein (Homo sapiens, UniProt P01112); assay: Binding to HRAS by surface plasmon resonance (SPR), Single Cycle Kinetics; conditions: for HRAS/KRAS (ratio of KD value for HRAS to KD value for KRAS) / HRAS/KRAS (ratio of KD value with respect to HRAS to KD value with respect to KRAS): SPR, GDP-bound HRAS wild-type protein vs GDP-bound KRAS wild-type protein
[2] = biological target: GDP-bound KRAS wild-type protein (Homo sapiens, UniProt P01116); assay: Binding to KRAS by surface plasmon resonance (SPR), Single Cycle Kinetics; conditions: GDP-bound KRAS wild-type protein, read-out: KRAS KD
[3] = biological target: GDP-bound NRAS wild-type protein (Homo sapiens, UniProt P01111); assay: Binding to NRAS by surface plasmon resonance (SPR), Single Cycle Kinetics; conditions: for NRAS/KRAS (ratio of KD value for NRAS to KD value for KRAS) / NRAS/KRAS (ratio of KD value with respect to NRAS to KD value with respect to KRAS): SPR, GDP-bound NRAS wild-type protein vs GDP-bound KRAS wild-type protein
[4] = SPR, Single Cycle Kinetics, 1:1 binding model
[5] = SPR Single Cycle Kinetics, 1:1 binding model

Sequence of GDP-bound NRAS wild-type protein (P01111 whole entry): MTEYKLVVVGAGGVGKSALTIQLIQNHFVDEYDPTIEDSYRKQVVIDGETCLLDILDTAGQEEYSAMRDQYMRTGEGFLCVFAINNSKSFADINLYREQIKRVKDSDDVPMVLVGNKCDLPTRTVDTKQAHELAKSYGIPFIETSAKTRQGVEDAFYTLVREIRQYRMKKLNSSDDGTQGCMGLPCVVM
Sequence of GDP-bound KRAS wild-type protein (P01116 whole entry): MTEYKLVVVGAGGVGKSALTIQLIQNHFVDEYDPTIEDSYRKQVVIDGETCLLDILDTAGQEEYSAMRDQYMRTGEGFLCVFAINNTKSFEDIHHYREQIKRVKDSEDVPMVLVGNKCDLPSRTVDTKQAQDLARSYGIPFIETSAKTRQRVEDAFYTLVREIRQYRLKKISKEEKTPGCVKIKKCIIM
Sequence of GDP-bound HRAS wild-type protein (P01112 whole entry): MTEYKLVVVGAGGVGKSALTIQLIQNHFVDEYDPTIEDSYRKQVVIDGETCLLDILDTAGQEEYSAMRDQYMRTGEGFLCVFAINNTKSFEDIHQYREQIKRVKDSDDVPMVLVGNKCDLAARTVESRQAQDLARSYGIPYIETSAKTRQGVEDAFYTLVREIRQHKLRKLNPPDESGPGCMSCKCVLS

SMILES	HRAS/KRAS (ratio of KD value for HRAS to KD value for KRAS) [1]	Kd ([2]; SPR, Single Cycle Kinetics) [pM]	NRAS/KRAS (ratio of KD value for NRAS to KD value for KRAS) [3]	Kd [2, 5] [pM]	also measured
CCC[C@H]1C(=O)N[C@@H]([C@@H](C)CC)C(=O)N(C)CC(=O)N(C)[C@H]2C/C=C\CCN(C2=O)[C@@H](Cc2ccc(C(F)(F)F)cc2)C(=O)N(C)CC(=O)N[C@@H](CCc2ccc(Cl)c(Cl)c2)C(=O)N2CCCCC[C@H]2C(=O)NC2(CC(C)(C)C2)C(=O)N(C)[C@@H](C(CC)CC)C(=O)N(C)[C@H](C(=O)N(C)C)CC(=O)N1C [PP3031]	A (a compound having 10 or more and less than 20 is denoted as A)	1900	AA (a compound having 20 or more is denoted as AA)	–	–
CCO[C@@H]1C[C@H]2C(=O)NC3(CC(C)(C)C3)C(=O)N(C)[C@@H](C(CC)CC)C(=O)N(C)[C@H](C(=O)N3CCCC3)CC(=O)N(C)[C@@H](CC)C(=O)N[C@@H]([C@@H](C)CC)C(=O)N(C)CC(=O)N(C)[C@H]3C/C=C\CCN(C3=O)[C@@H](Cc3ccc(C)cc3)C(=O)N(C)CC(=O)N[C@@H](CCc3cc(F)c(C(F)(F)F)c(F)c3)C(=O)N2C1 [PP2149]	A (a compound having 10 or more and less than 20 is denoted as A)	580	A (a compound having 10 or more and less than 20 is denoted as A)	–	–
CC[C@H](C)[C@@H]1NC(=O)[C@H](CC2CC2)N(C)C(=O)C[C@@H](C(=O)N(C)C)N(C)C(=O)[C@H](C2CCCC2)N(C)C(=O)C2(CC(C)(C)C2)NC(=O)[C@@H]2C[C@@H](C(F)(F)F)CN2C(=O)[C@H](CCc2cc(F)c(C(F)(F)F)c(F)c2)NC(=O)CN(C)C(=O)[C@H](Cc2ccc(F)cc2)N2CC/C=C\C[C@@H](C2=O)N(C)C(=O)CN(C)C1=O [PP1507]	–	–	–	–	HRAS/KRAS (ratio of KD value for HRAS to KD value for KRAS) ([1]; KD ratio class): A (a compound having 10 or more and less than 20 is denoted as A); Kd [2, 4]: 170 pM; NRAS/KRAS (ratio of KD value for NRAS to KD value for KRAS) ([3]; KD ratio class): A (a compound having 10 or more and less than 20 is denoted as A)
CCC[C@H]1C(=O)N[C@@H]([C@@H](C)CC)C(=O)N(C)CC(=O)N(C)[C@H]2C/C=C\CCN(C2=O)[C@@H](Cc2ccc(C(F)(F)F)cc2)C(=O)N(C)CC(=O)N[C@@H](CCc2ccc3c(C)cn(C)c3c2)C(=O)N2C[C@H](OCC)C[C@H]2C(=O)NC2(CC(C)(C)C2)C(=O)N(C)[C@@H](C2CCCC2)C(=O)N(C)[C@H](C(=O)N(C)C)CC(=O)N1C [PP2897]	–	–	–	560	HRAS/KRAS (ratio of KD value with respect to GDP-bound HRAS wild-type protein to KD value with respect to KRAS) ([1]; SPR KD ratio HRAS/KRAS, class symbols): B (a compound having 3 or more and less than 10 is denoted as B); NRAS/KRAS (ratio of KD value with respect to GDP-bound NRAS wild-type protein to KD value with respect to KRAS) ([3]; SPR KD ratio NRAS/KRAS, class symbols): A (a compound having 10 or more and less than 20 is denoted as A)
CCO[C@@H]1C[C@H]2C(=O)NC3(CCC3)C(=O)N(C)[C@@H](C3CCCC3)C(=O)N(C)[C@H](C(=O)N(C)C)CC(=O)N(C)[C@@H](CC(C)(C)C)C(=O)N[C@@H]([C@@H](C)CC)C(=O)N(C)CC(=O)N(C)[C@H]3CCCCN(C3=O)[C@@H](Cc3ccc(C(F)(F)F)cc3)C(=O)N(C)CC(=O)N[C@@H](CCc3cc(F)c(C(F)(F)F)c(F)c3)C(=O)N2C1 [PP0699]	–	–	–	36	HRAS/KRAS (ratio of KD value with respect to HRAS to KD value with respect to KRAS) [1]: C (A compound having a KD ratio of 0.1 or more and less than 3 is denoted as C); NRAS/KRAS (ratio of KD value with respect to NRAS to KD value with respect to KRAS) [3]: C (A compound having a KD ratio of 0.1 or more and less than 3 is denoted as C)
CC[C@H](C)[C@@H]1NC(=O)[C@H](CC2CC2)N(C)C(=O)C[C@@H](C(=O)N(C)CC)N(C)C(=O)[C@H](C2CCCC2)N(C)C(=O)C2(CCC2)NC(=O)[C@@H]2C[C@H](C)CN2C(=O)[C@H](CCc2cc(F)c(C(F)(F)F)c(F)c2)NC(=O)CN(C)C(=O)[C@H](Cc2ccc(C(F)(F)F)cc2)N2CC/C=C\C[C@@H](C2=O)N(C)C(=O)CN(C)C1=O [PP1537, (2S,8S,12S,14S,20S,23S,27S,30S,36S,38Z)-20-cyclopentyl-27-(cyclopropylmethyl)-8-[2-[3,5-difluoro-4-(trifluoromethyl)phenyl]ethyl]-N-ethyl-N,4,12,19,22,26,32,35-octamethyl-30-[(1S)-1-methylpropyl]-3,6,9,15,18,21,25,28,31,34,42-undecaoxo-2-[[4-(trifluoromethyl)phenyl]methyl]spiro[1,4,7,10,16,19,22,26,29,32,35-undecazatricyclo[34.5.1.0^10,14]dotetracont-38-ene-17,1′-cyclobutane]-23-carboxamide]	–	–	–	–	HRAS/KRAS (ratio of KD value for HRAS to KD value for KRAS) ([1]; KD ratio class): A (a compound having 10 or more and less than 20 is denoted as A); Kd [2, 4]: 67 pM; NRAS/KRAS (ratio of KD value for NRAS to KD value for KRAS) ([3]; KD ratio class): AA (a compound having 20 or more is denoted as AA)
CCO[C@@H]1C[C@H]2C(=O)NC3(CCC3)C(=O)N(C)[C@@H](C3CCCC3)C(=O)N(C)[C@H](C(=O)N(C)C)CC(=O)N(C)[C@@H](Cc3cccc(Cl)c3)C(=O)N[C@@H]([C@@H](C)CC)C(=O)N(C)CC(=O)N(C)[C@H]3CCCCCN(C3=O)[C@@H](Cc3ccc(C(F)(F)F)cc3)C(=O)N(C)CC(=O)N[C@@H](CCc3cc(F)c(C(F)(F)F)c(F)c3)C(=O)N2C1 [PP0939]	B (a compound having 3 or more and less than 10 is denoted as B)	910	B (a compound having 3 or more and less than 10 is denoted as B)	–	–
CCO[C@@H]1C[C@H]2C(=O)NC3(CCC3)C(=O)N(C)[C@@H](C3CCCC3)C(=O)N(C)[C@H](C(=O)N(C)CC)CC(=O)N(C)[C@@H](CC)C(=O)N[C@@H]([C@@H](C)CC)C(=O)N(C)CC(=O)N(C)[C@H]3C/C=C\CCN(C3=O)[C@@H](CC3CCCCC3)C(=O)N(C)CC(=O)N[C@@H](CCc3cc(F)c(C(F)(F)F)c(F)c3)C(=O)N2C1 [PP1552]	–	–	–	–	HRAS/KRAS (ratio of KD value for HRAS to KD value for KRAS) ([1]; KD ratio class): A (a compound having 10 or more and less than 20 is denoted as A); Kd [2, 4]: 190 pM; NRAS/KRAS (ratio of KD value for NRAS to KD value for KRAS) ([3]; KD ratio class): A (a compound having 10 or more and less than 20 is denoted as A)
CCC[C@H]1C(=O)N[C@@H](C(CC)CC)C(=O)N(C)CC(=O)N(C)[C@H]2C/C=C\CCN(C2=O)[C@@H](Cc2ccc(C)cc2)C(=O)N(C)CC(=O)N[C@@H](CCc2ccc(C(F)(F)F)c(Cl)c2)C(=O)N2C[C@H](OCC)C[C@H]2C(=O)NC2(CC(C)(C)C2)C(=O)N(C)[C@@H](C2CCCC2)C(=O)N(C)[C@H](C(=O)N(C)C)CC(=O)N1C [PP2209]	A (a compound having 10 or more and less than 20 is denoted as A)	810	A (a compound having 10 or more and less than 20 is denoted as A)	–	–
CC[C@H](C)[C@@H]1NC(=O)[C@H](CC(C)C)N(C)C(=O)C[C@@H](C(=O)N2CCOCC2)N(C)C(=O)[C@H](C2CCCC2)N(C)C(=O)C2(CC2)NC(=O)[C@@H]2CCCN2C(=O)[C@H](CCc2cc(F)c(C(F)(F)F)c(F)c2)NC(=O)CN(C)C(=O)[C@H](Cc2ccc(C(F)(F)F)cc2)N2CCCCC[C@@H](C2=O)N(C)C(=O)CN(C)C1=O [PP0496]	–	–	–	4800	HRAS/KRAS (ratio of KD value with respect to HRAS to KD value with respect to KRAS) [1]: B (a compound having 3 or more and less than 10 is denoted as B); NRAS/KRAS (ratio of KD value with respect to NRAS to KD value with respect to KRAS) [3]: B (a compound having 3 or more and less than 10 is denoted as B)
CCCN1C(=O)[C@@H]2CCN2C(=O)CN(C)C(=O)[C@H]([C@@H](C)CC)NC(=O)[C@H](CC(C)C)N(C)C(=O)C[C@@H](C(=O)N(C)C)NC(=O)[C@H](C2CCCC2)N(C)C(=O)C2(CCC2)NC(=O)[C@@H]2CC(F)(F)CN2C(=O)[C@H](CCc2ccc(C(F)(F)F)c(Cl)c2)NC(=O)CN(C)C(=O)[C@@H]1Cc1ccc(C(F)(F)F)cc1 [PP0388] ([NMeL]I[Sar][Aze][NPrPhe(4-CF3)][Sar][hPhe(3-Cl-4-CF3)][Pro(4,4-F2)][Ac4c][NMeGly(cPent)]D-NMe2; lactam N-11)	B (a compound having 3 or more and less than 10 is denoted as B)	–	C (A compound having a KD ratio of 0.1 or more and less than 3 is denoted as C)	780	–
CCO[C@@H]1C[C@H]2C(=O)NC3(CCC3)C(=O)N(C)[C@@H](C3CCCC3)C(=O)N(C)[C@H](C(=O)N(C)C)CC(=O)N(C)[C@@H](CC)C(=O)N[C@@H]([C@@H](C)CC)C(=O)N(C)CC(=O)N(C)[C@H]3CCCCN(C3=O)[C@@H](Cc3ccc(C(F)(F)F)cc3)C(=O)N(C)CC(=O)N[C@@H](CCc3ccc(C(F)(F)F)c(C)c3)C(=O)N2C1 [PP0882]	B (a compound having 3 or more and less than 10 is denoted as B)	20	C (A compound having a KD ratio of 0.1 or more and less than 3 is denoted as C)	–	–
CCCN1C(=O)CN(C)C(=O)CN(C)C(=O)[C@H]([C@@H](C)CC)NC(=O)[C@H](CC(C)C)N(C)C(=O)C[C@@H](C(=O)N2CCC2)N(C)C(=O)[C@H](C2CCCC2)N(C)C(=O)C2(CCCC2)NC(=O)[C@@H]2CCCN2C(=O)[C@H](CCc2ccc(C(F)(F)F)c(Cl)c2)NC(=O)CN(C)C(=O)[C@@H]1Cc1ccc(C(F)(F)F)cc1 [PP0172] ([NMeL]I[Sar][Sar][NPrPhe(4-CF3)][Sar][hPhe(3-Cl-4-CF3)]P[Ac5c][NMeGly(cPent)][NMeD]-{Azetidin(1-yl)}; lactam N-11)	C (A compound having a KD ratio of 0.1 or more and less than 3 is denoted as C)	–	B (a compound having 3 or more and less than 10 is denoted as B)	130	–
